Measurements from patent EP4813993A1, “COMPOUND, PREPARATION METHOD THEREFOR, AND USE THEREOF” (Sichuan Kelun Pharmaceutical Research Institute Co., Ltd., priority 2023, dated 2025).
pIC50: −log10 of the molar value.

How the values were obtained:
Nav1.8 channels = molecular target: T1, Nav1.8 channels (Homo sapiens, UniProt Q9Y5Y9); assay: Manual patch-clamp, current of stably overexpressed Nav1.8 channels (resting state voltage program); assay type: cell-based
T1 construct: expressed in transfected cells
In short: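 Whole-cell manual patch clamp on cells stably overexpressing Nav1.8, held at -120 mV and stepped to 0 mV for 50 ms every 20 s (resting-state protocol). Compounds were perfused in ascending concentrations, each for 5 min or until stable; block of peak current was calculated at steady state.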

[1] = test system: acetic acid writhing model; assay: Mouse acetic acid writhing model; assay type: in vivo, ICR mice; conditions: for Number of writhing responses / Inhibition rate (%): ICR mice; for Number of writhing responses: 60 min before 0.8% acetic acid i.p., 30 min observation, Mean + SD, n = 10; for Inhibition rate (%): inhibition of writhing responses vs control group
incision pain model = assay: Incision pain model in ICR mice, Von Frey test; assay type: in vivo; conditions: 50 mg/kg single dose, Mean + SEM, n = 10
[2] = mouse acetic acid writhing model

T1 sequence (Q9Y5Y9 whole entry): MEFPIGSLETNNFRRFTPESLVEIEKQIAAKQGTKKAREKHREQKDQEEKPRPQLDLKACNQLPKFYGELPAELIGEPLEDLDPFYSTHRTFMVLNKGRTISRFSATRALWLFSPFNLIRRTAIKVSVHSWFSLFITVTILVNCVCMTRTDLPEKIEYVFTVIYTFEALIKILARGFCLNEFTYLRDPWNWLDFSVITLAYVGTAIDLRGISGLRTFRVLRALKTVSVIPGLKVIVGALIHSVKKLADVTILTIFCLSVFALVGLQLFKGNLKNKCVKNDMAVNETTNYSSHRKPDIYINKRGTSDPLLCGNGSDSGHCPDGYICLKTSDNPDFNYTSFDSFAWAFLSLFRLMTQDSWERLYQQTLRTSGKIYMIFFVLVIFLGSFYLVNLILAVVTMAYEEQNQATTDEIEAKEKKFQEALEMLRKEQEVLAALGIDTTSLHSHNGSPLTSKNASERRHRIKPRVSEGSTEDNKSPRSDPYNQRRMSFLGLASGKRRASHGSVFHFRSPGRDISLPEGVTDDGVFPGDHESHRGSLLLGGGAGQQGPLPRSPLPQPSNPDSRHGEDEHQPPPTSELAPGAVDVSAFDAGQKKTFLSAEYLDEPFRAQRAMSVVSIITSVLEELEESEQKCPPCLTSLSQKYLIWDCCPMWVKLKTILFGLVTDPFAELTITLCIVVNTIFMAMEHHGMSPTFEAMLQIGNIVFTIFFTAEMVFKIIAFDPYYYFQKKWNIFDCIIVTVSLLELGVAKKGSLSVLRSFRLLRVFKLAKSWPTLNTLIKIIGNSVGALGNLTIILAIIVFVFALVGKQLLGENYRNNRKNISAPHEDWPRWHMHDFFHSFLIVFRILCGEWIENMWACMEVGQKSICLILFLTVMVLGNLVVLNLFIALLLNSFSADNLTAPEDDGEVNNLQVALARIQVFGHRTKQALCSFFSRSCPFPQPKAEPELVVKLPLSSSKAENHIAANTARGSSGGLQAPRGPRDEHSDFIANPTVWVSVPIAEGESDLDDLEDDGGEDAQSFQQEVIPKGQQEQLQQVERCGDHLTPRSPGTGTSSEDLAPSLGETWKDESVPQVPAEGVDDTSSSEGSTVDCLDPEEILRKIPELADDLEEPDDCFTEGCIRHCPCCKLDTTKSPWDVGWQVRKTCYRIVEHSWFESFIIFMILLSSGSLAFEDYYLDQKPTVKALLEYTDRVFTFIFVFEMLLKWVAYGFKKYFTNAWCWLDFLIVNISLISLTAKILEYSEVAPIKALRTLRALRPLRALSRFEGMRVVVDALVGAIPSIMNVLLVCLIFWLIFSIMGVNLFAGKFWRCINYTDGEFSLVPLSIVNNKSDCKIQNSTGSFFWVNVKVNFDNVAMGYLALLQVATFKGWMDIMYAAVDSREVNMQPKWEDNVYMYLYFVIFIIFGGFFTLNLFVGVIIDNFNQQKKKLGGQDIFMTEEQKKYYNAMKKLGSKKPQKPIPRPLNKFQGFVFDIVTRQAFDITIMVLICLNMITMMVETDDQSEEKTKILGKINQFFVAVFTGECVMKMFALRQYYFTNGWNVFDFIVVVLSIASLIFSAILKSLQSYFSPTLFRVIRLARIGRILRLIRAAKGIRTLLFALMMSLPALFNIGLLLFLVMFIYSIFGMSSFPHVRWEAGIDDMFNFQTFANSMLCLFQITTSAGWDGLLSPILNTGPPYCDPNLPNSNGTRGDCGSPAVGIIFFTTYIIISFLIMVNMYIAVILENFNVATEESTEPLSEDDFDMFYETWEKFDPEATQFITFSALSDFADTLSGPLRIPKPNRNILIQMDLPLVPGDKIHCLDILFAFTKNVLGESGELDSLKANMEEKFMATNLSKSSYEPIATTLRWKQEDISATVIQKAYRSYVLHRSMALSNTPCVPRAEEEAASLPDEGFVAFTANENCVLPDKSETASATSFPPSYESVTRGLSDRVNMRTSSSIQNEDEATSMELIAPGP

For `COc1c(C2CC(C)(C(F)(F)F)SC2C(=O)Nc2ccnc(C(N)=O)c2)ccc(F)c1F` (single isomer, unassigned) [Compound 139-A, 4-(3-(3,4-difluoro-2-methoxyphenyl)-5-methyl-5-(trifluoromethyl)tetrahydrothiophene-2-carboxamido)picolinamide], the pIC50 (Nav1.8 channels) was 10.22, the Inhibition rate (%) (Nav1.8 channels; concentration of 10 nM, 0.01 µM) was 95.31% and the “Number of writhing responses” value ([1]; Dose 50 mg/kg) was 27±18. For the same molecule, the “Inhibition rate (%)” value ([1]; Dose 50 mg/kg) was 45.36%, the “Number of writhing responses” value ([1]; Dose 125 mg/kg) was 18±12 and the “Inhibition rate (%)” value ([1]; Dose 125 mg/kg) was 62.89%. The “effect of inhibiting the number of writhing responses” value ([1]; dose of 125 mg/kg) was “very significant effect”, the dose-effect relationship [1, 2] was “relatively good dose-effect relationship” and the “inhibition of the writhing effect compared with VX-548” value [1, 2] was “better than VX-548”. The “PWT 50% value (g) AUC0-8h” value (incision pain model) was 5.45 ± 1.62 g·h.
